These results are taken from patent EP3057950B1, “PHENYL LINKED QUINOLINYL MODULATORS OF ROR-GAMMA-T” (Janssen Pharmaceutica NV, priority 2013, dated 2015).

Assay [1] deals with T1, wild type human RORγt LBD (Homo sapiens, UniProt P51449).
T1 construct: expressed in transfected cells; host or cells: HEK293T
T1 sequence (P51449 269-508 limits assumed): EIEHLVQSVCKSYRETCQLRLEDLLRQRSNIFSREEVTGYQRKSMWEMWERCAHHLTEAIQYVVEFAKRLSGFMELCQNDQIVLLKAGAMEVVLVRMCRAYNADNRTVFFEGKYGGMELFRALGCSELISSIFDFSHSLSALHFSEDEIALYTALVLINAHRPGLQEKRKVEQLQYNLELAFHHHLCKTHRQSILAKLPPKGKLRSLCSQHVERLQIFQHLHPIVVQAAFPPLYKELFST
Kind of assay: RORγt Reporter Assay (GAL4-RORγt LBD luciferase in HEK293T cells). The format is cell-based. Particulars: HEK293T cells; for IC50: compounds for 24 hours, read-out: RORγt reporter Assay, IC50; for inhibition at 6 µM: HEK-293T, read-out: RORγt reporter Assay, % inhibition @ 6 µM, @ 6 µM. Put shortly: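 HEK293T cells transiently co-transfected with GAL4-DBD–human RORγt LBD (or AF2 mutant) and GAL4-responsive firefly luciferase reporter; renilla luciferase normalised transfection and viability. Compounds applied 24 h in 5% lipid-reduced FCS; firefly/renilla ratio plotted against concentration.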
In general terms: A reporter such as luciferase makes a cellular process visible.

Assay [2] relates to IL-17 production by CD4 T cells. Kind of assay: Human Th17 Assay (IL-17 production by CD4 T cells under Th17 differentiation conditions). The format is cell-based. Particulars: 3 days, IL-17 in supernatant. The procedure: The human Th17 assay tests the effect of RORγt modulatory compounds on IL-17 production by CD4 T cells under conditions which favor Th17 differentiation. Total CD4^+ T cells were isolated from the peripheral blood mononuclear cells (PBMC) of healthy donors using a CD4^+ T cell isolation kit II, following the manufacturer's instructions (Miltenyi Biotec). […] 50 µL of compound at titrated concentrations in DMSO were added into each well at final DMSO concentration at 0.2%. Cells were incubated for 1 hour, then 50 µL of Th17 cell differentiation medium was added to each well. The final concentrations of antibodies and cytokines (R&D Systems) in differentiation medium were: 3x10^6/mL anti-CD3/CD28 beads (prepared using human T cell activation/expansion kit, Miltenyi Biotec), 10 µg/mL anti-IL4, 10 µg/mL anti-IFNγ, 10 ng/mL […], 10 ng/mL IL23, 50 ng/mL IL6, 3 ng/mL TGFβ and 20 U/mL IL2. Cells were cultured at 37 °C and 5% CO2 for 3 days. Supernatants were collected and the accumulated IL-17 in culture was measured by using MULTI-SPOT® Cytokine Plate following manufacture's instruction (Meso Scale Discovery). The plate was read using Sector Imager 6000, and IL-17 concentration was extrapolated from the standard curve. The IC50s were determined by GraphPad.

Assay [3] concerns the target T2, wild type human RORγt ligand binding domain (RORγt LBD) (Homo sapiens, UniProt P51449).
T2 construct: His-tag (N); TurboTEV protease cleavage site (ENLYFQG) (N); made in house; host or cells: E. coli (pHIS1, modified pET expression vector)
T2 sequence (P51449 269-508 limits assumed): T1 sequence (P51449 269-508 limits assumed)
Kind of assay: RORγt ThermoFluor® Assay (thermal shift, binding affinity). Particulars: pH 7.0, estimated from concentration response curves. The gist of the method: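 Thermal shift assay on 0.065 mg/mL RORγt LBD with 60 µM 1,8-ANS in 100 mM Hepes pH 7.0, 10 mM NaCl, 2.5 mM GSH, 0.002% Tween-20. Heated at 1 °C/min, fluorescence read at 500 nm.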

With `COc1nc2ccc(C(O)(c3cncn3C)C3CCN(C(C)=O)CC3)cc2c(Cl)c1-c1cccc(C(F)(F)F)c1` (single isomer, unassigned) [Example 1b, 1-(4-((4-Chloro-2-methoxy-3-(3-(trifluoromethyl)phenyl)quinolin-6-yl)(hydroxy)(1-methyl-1H-imidazol-5-yl)methyl)piperidin-1-yl)ethanone], in assay [1], the IC50 (as a rule, the concentration needed to halve the response being measured) is 0.16 µM and the inhibition (commonly how much of the control response was suppressed) at 6 µM turned out to be 89%. The IC50 in assay [2] (Homo sapiens, CD4+ T, 72 h) came to 0.4 µM. Moreover, the Kd (usually the concentration at which binding is half-saturated) in assay [3] was 0.13 µM.
Consider `COc1nc2ccc(C(O)(c3cncn3C)C3CCN(C(C)=O)CC3)cc2c(Cl)c1-c1cccc(C(F)(F)F)c1` (single isomer, unassigned) [Example 1c, 1-(4-((4-Chloro-2-methoxy-3-(3-(trifluoromethyl)phenyl)quinolin-6-yl)(hydroxy)(1-methyl-1H-imidazol-5-yl)methyl)piperidin-1-yl)ethanone], for which, in assay [1], the “RORγt reporter Assay, % inhibition @ 6 µM” value turned out to be 95% and the half-maximal inhibitory concentration (IC50) was found to be 0.11 µM. Further, the IC50 in assay [2] turned out to be 0.31 µM. Further, the Kd in assay [3] is 0.033 µM.
Turning to `COc1nc2ccc(C(O)(c3cncn3C)C3CCN(C(C)=O)CC3)cc2c(C#N)c1-c1cccc(C(F)(F)F)c1` (single isomer, unassigned) [Example 2b, 6-((1-Acetylpiperidin-4-yl)(hydroxy)(1-methyl-1H-imidazol-5-yl)methyl)-2-methoxy-3-(3-(trifluoromethyl)phenyl)quinoline-4-carbonitrile], the IC50 was found to be 0.2 µM in assay [1] and 2.9 µM in assay [2]. Moreover, the inhibition at 6 µM in assay [1] came to 91%. For the same compound, the Kd in assay [3] was 0.13 µM.
Take `COc1nc2ccc(C(O)(c3cncn3C)C3CCN(C(C)=O)CC3)cc2c(C#N)c1-c1cccc(C(F)(F)F)c1` (single isomer, unassigned) [Example 2c, 6-((1-Acetylpiperidin-4-yl)(hydroxy)(1-methyl-1H-imidazol-5-yl)methyl)-2-methoxy-3-(3-(trifluoromethyl)phenyl)quinoline-4-carbonitrile]: the “RORγt reporter Assay, % inhibition @ 6 µM” value in assay [1] came out at 95%. Also, the IC50 was 0.17 µM in assay [1] and 0.67 µM in assay [2]. The Kd in assay [3] was 0.14 µM.
Consider `COc1nc2ccc(C(O)(c3cncn3C)c3cnnn3C)cc2c(Cl)c1-c1cccc(C(F)(F)F)c1` (single isomer, unassigned) [Example 3b, (4-Chloro-2-methoxy-3-(3-(trifluoromethyl)phenyl)quinolin-6-yl)(1-methyl-1H-1,2,3-triazol-5-yl)(1-methyl-1H-imidazol-5-yl)methanol], for which the IC50 was found to be 0.003 µM in assay [1] and 0.013 µM in assay [2]. Further, the inhibition at 6 µM in assay [1] worked out at 96%. For the same compound, in assay [3], the Kd was 0.00056 µM.
Consider `COc1nc2ccc(C(O)(c3cncn3C)c3cnnn3C)cc2c(Cl)c1-c1cccc(C(F)(F)F)c1` (single isomer, unassigned) [Example 3c, (4-Chloro-2-methoxy-3-(3-(trifluoromethyl)phenyl)quinolin-6-yl)(1-methyl-1H-1,2,3-triazol-5-yl)(1-methyl-1H-imidazol-5-yl)methanol], for which the “RORγt reporter Assay, % inhibition @ 6 µM” value in assay [1] was determined as 98%. Besides, the figures for the IC50 in assay [1] and in assay [2] were 0.0066 µM and 0.043 µM, respectively. In assay [3], the dissociation constant Kd is 0.0023 µM.
Turning to `COc1nc2ccc(C(O)(c3cncn3C)c3cnnn3C)cc2c(C#N)c1-c1cccc(C(F)(F)F)c1` (single isomer, unassigned) [Example 4b, 6-(Hydroxy(1-methyl-1H-1,2,3-triazol-5-yl)(1-methyl-1H-imidazol-5-yl)methyl)-2-methoxy-3-(3-(trifluoromethyl)phenyl)quinoline-4-carbonitrile], the IC50 in assay [1] amounted to 0.0095 µM; in assay [2] (Homo sapiens, CD4+ T, 72 h), 0.061 µM. Besides, the inhibition at 6 µM in assay [1] was 98%. In assay [3], the Kd is 0.0044 µM.
With `COc1nc2ccc(C(O)(c3cncn3C)c3cnnn3C)cc2c(C#N)c1-c1cccc(C(F)(F)F)c1` (single isomer, unassigned) [Example 4c, 6-(Hydroxy(1-methyl-1H-1,2,3-triazol-5-yl)(1-methyl-1H-imidazol-5-yl)methyl)-2-methoxy-3-(3-(trifluoromethyl)phenyl)quinoline-4-carbonitrile], the “RORγt reporter Assay, % inhibition @ 6 µM” value in assay [1] was found to be 98%. The IC50 in assay [1] is 0.011 µM; in assay [2], 0.031 µM. For the same compound, the Kd in assay [3] was 0.0014 µM.
The like results for `COc1nc2ccc(C(O)(c3ccc(C(F)(F)F)nc3)c3cncn3C)cc2c(Cl)c1-c1ccc(Cl)s1` (single isomer, unassigned) [Example 14b, [4-Chloro-3-(5-chlorothiophen-2-yl)-2-methoxyquinolin-6-yl](1-methyl-1H-imidazol-5-yl)[6-(trifluoromethyl)pyridin-3-yl]methanol] were, in that order, 53%, 0.24 µM, 0.079 µM and 0.0052 µM.
The like results for `COc1nc2ccc(C(O)(c3ccc(C(F)(F)F)nc3)c3cncn3C)cc2c(Cl)c1-c1ccc(Cl)s1` (single isomer, unassigned) [Example 14c, [4-Chloro-3-(5-chlorothiophen-2-yl)-2-methoxyquinolin-6-yl](1-methyl-1H-imidazol-5-yl)[6-(trifluoromethyl)pyridin-3-yl]methanol] were, in that order, 87%, 0.51 µM, 0.31 µM and 0.14 µM.
Regarding `COc1nc2c(C)cc(C(O)(c3ccc(C(F)(F)F)nc3)c3cncn3C)cc2c(C#N)c1-c1ccc(OC(F)(F)F)cc1` (single isomer, unassigned) [Example 19b, 6-(Hydroxy(1-methyl-1H-imidazol-5-yl)(6-(trifluoromethyl)pyridin-3-yl)methyl)-2-methoxy-8-methyl-3-(4-(trifluoromethoxy)phenyl)quinoline-4-carbonitrile], in assay [1], the “RORγt reporter Assay, % inhibition @ 6 µM” value came out at 94% and the IC50 amounted to 0.3 µM. Also, in assay [2] (Homo sapiens, CD4+ T, 72 h), the IC50 was 0.4 µM. Further, the Kd in assay [3] was 0.36 µM.
The like results for `CC(=O)N1CCC(C(O)(c2ccccc2)c2cc(C)c3nc(C#N)c(-c4ccccc4)c(C#N)c3c2)CC1` (single isomer, unassigned) [Example 21c, 6-((1-Acetylpiperidin-4-yl)(hydroxy)(phenyl)methyl)-8-methyl-3-phenylquinoline-2,4-dicarbonitrile] were, in that order, 96%, 0.19 µM, 0.18 µM and 0.11 µM.
The like results for `Cc1cc(C(O)(c2ccc(Cl)cc2)c2cncn2C)cc2c(C#N)c(-c3ccccc3)c(C#N)nc12` (single isomer, unassigned) [Example 23c, 6-((4-Chlorophenyl)(hydroxy)(1-methyl-1H-imidazol-5-yl)methyl)-8-methyl-3-phenylquinoline-2,4-dicarbonitrile] were, in that order, 100%, 0.23 µM, 0.4 µM and 0.15 µM.
Turning to `COc1c(-c2ccccc2)c(Cl)nc2ccc(C(O)(c3cnnn3C)c3cnc(C)n3C)cc12` (single isomer, unassigned) [Example 40c, (2-Chloro-4-metboxy-3-phenylquinolin-6-yl)(1,2-dimethyl-1H-imidazol-5-yl)(1-methyl-1H-1,2,3-triazol-5-yl)methanol], the “RORγt reporter Assay, % inhibition @ 6 µM” value in assay [1] is 103%. The same compound registered an IC50 in assay [2] (Homo sapiens, CD4+ T, 72 h) of 0.21 µM.
Consider `Cn1cncc1C(O)(c1ccc(Cl)cc1)c1ccc2nc(Cl)c(-c3ccccc3)c(Cl)c2c1` (centres unmarked) [Example 65, (4-Chlorophenyl)(2,4-dichloro-3-phenylquinolin-6-yl)(1-methyl-1H-imidazol-5-yl)methanol], for which the IC50 in assay [2] (72 h) was 1.8 µM.
`Cc1nc(C)c(C(O)(c2ccc3nc(Cl)c(-c4ccccc4)c(Cl)c3c2)c2cncn2C)s1` (centres unmarked) [Example 68, (2,4-Dichloro-3-phenylquinolin-6-yl)(2,4-dimethylthiazol-5-yl)(1-methyl-1H-imidazol-5-yl)methanol] had an IC50 in assay [2] (72 h) of 0.02 µM.
